Test results: US20220168427A1 (Ranok Therapeutics (Hangzhou) Co. Ltd., priority 2019, published 2022)
Structures can show the parent of a compound that is named as a salt.

How the values were obtained:
MV4-11 cells = assay: MV4-11 Cell Cytotoxicity Assay; type: cell-based, human; conditions: CCK-8; for IC50 at 72 h: human, MV4-11 cells; for IC50: 72 hr
Source text: % Inhibition=100−(D−B)/(S−B)*100%.
S: The absorbance of the maximum (cells with DMSO)
B: The absorbance of the minimum (medium with DMSO)

BRD4 (BD1+BD2) = biological target: T1, BRD4 (BD1+BD2) (Homo sapiens, UniProt O60885); conditions: read-out: BRD4 Binding Potency
T1 construct: 1.8 μg/ml recombinant BRD4 (BD1+BD2 domains) protein

HSP90α = HSP90α (Homo sapiens, UniProt P07900); assay: HSP90α Binding Fluorescent Polarization (FP) Assay; conditions: competition with FITC-geldanamycin; read-out: HSP90 Binding Potency
Method in brief: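 Competitive FP assay in which compound displaces FITC-geldanamycin from recombinant HSP90α (28 μg/ml before addition) in BSA-containing buffer. Compounds in 3-fold series from 40 μM to 2.0 nM (dilution-plate concentrations), tested in duplicate. Readings after 30, 60 and 120 min at 25 °C; background-subtracted mP fitted to four-parameter log[inhibitor]-response curve.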

| Compound | IC50 at 72 h (MV4-11 cells) [nM] | IC50 (BRD4 (BD1+BD2)) [nM] | IC50 (HSP90α) [nM] | IC50 (MV4-11 cells) [nM] |
| --- | --- | --- | --- | --- |
| Cc1sc2c(c1C)C(c1ccc(Cl)cc1)=N[C@@H](CC(=O)NCCc1ccc(CN3CCC(Cc4ccc(-n5c(O)nnc5-c5cc(C(C)C)c(O)cc5O)cc4)CC3)cc1)c1nnc(C)n1-2 [Compound 98, (S)-2-(4-(4-chlorophenyl)-2,3,9-trimethyl-6H-thieno[3,2-f][1,2,4]triazolo[4,3-a][1,4]diazepin-6-yl)-N-(4-((4-(4-(3-(2,4-dihydroxy-5-isopropylphenyl)-5-hydroxy-4H-1,2,4-triazol-4-yl)benzyl)piperidin-1-yl)methyl)phenethyl)acetamide, trifluoroacetic acid] | < 100 | 100 to 1000 | 100 to 1000 | – |
| CC[C@@H](C)Nc1cc(C(=O)NC2C[C@H]3CC[C@H](C2)N3c2ccc(C(=O)c3ccc(CN4CCN(CC5CCN(C(=O)C[C@@H]6N=C(c7ccc(Cl)cc7)c7c(sc(C)c7C)-n7c(C)nnc76)CC5)CC4)cc3)cn2)c(C)cc1C(N)=O (stereo partly drawn) [Compound 25, 5-(((R)-sec-butyl)amino)-N1-((1R,3r,5S)-8-(5-(4-((4-((1-(2-((S)-4-(4-chlorophenyl)-2,3,9-trimethyl-6H-thieno[3,2-f][1,2,4]triazolo[4,3-a][1,4]diazepin-6-yl)acetyl)piperidin-4-yl)methyl)piperazin-1-yl)methyl)benzoyl)pyridin-2-yl)-8-azabicyclo[3.2.1]octan-3-yl)-2-methylterephthalamide] | 100 to 1000 | 100 to 1000 | > 1000 | – |
| Cc1sc2c(c1C)C(c1ccc(Cl)cc1)=N[C@@H](CC(=O)N1CCC(CN3CCC(Cc4ccc(-n5c(C(=O)NCC(F)(F)F)nnc5-c5cc(C(C)C)c(O)cc5O)cc4)CC3)CC1)c1nnc(C)n1-2 [Compound 85, (S)-4-(4-((1-((1-(2-(4-(4-chlorophenyl)-2,3,9-trimethyl-6H-thieno[3,2-f][1,2,4]triazolo[4,3-a][1,4]diazepin-6-yl)acetyl)piperidin-4-yl)methyl)piperidin-4-yl)methyl)phenyl)-5-(2,4-dihydroxy-5-isopropylphenyl)-N-(2,2,2-trifluoroethyl)-4H-1,2,4-triazole-3-carboxamide, formic acid] | < 100 | 100 to 1000 | 100 to 1000 | – |
| Cc1nn(-c2ccc(C(N)=O)c(NCCOCCC3CCN(C(=O)C[C@@H]4N=C(c5ccc(Cl)cc5)c5c(sc(C)c5C)-n5c(C)nnc54)CC3)c2)c2c1C(=O)CC(C)(C)C2 [Compound 23, 2-((2-(2-(1-(2-((6S)-4-(4-chlorophenyl)-2,3,9-trimethyl-6H-thieno[3,2-f][1,2,4]triazolo[4,3-a][1,4]diazepin-6-yl)acetyl)piperidin-4-yl)ethoxy)ethyl)amino)-4-(3,6,6-trimethyl-4-oxo-4,5,6,7-tetrahydro-1H-indazol-1-yl)benzamide, trifluoroacetic acid] | 100 to 1000 | > 1000 | > 1000 | – |
| (S)—N-(4′-((1-((S)-(2-(4-(4-chlorophenyl)-2,3,9-trimethyl-6H-thieno[3,2-f][1,2,4]triazolo[4,3-a][1,4]diazepin-6-yl)acetyl)glycyl)piperidin-4-yl)oxy)-2′-(2-(dimethylamino)ethoxy)-[1,1′-biphenyl]-4-yl)-3′,6-dimethoxy-[1,1′-biphenyl]-3-carboxamide [Compound 137] | – | 100 to 1000 | > 1000 | 100 to 1000 |
| Cc1sc2c(c1C)C(c1ccc(Cl)cc1)=N[C@@H](CC(=O)N1CCC(N3CCN(Cc4ccc(-n5c(O)nnc5-c5cc(C(C)C)c(O)cc5O)cc4)CC3)CC1)c1nnc(C)n1-2 [Compound 42, (S)-2-(4-(4-chlorophenyl)-2,3,9-trimethyl-6H-thieno[3,2-f][1,2,4]triazolo[4,3-a][1,4]diazepin-6-yl)-1-(4-(4-(4-(3-(2,4-dihydroxy-5-isopropylphenyl)-5-hydroxy-4H-1,2,4-triazol-4-yl)benzyl)piperazin-1-yl)piperidin-1-yl)ethan-1-one, trifluoroacetic acid] | < 100 | 100 to 1000 | 100 to 1000 | – |
| CCc1cc(-c2nnc(O)n2-c2ccc(CN3CCN(CC4CCN(C(=O)C[C@@H]5N=C(c6ccc(Cl)cc6)c6c(sc(C)c6C)-n6c(C)nnc65)CC4)CC3)cc2)c(O)cc1O [Compound 10, (S)-2-(4-(4-chlorophenyl)-2,3,9-trimethyl-6H-thieno[3,2-f][1,2,4]triazolo[4,3-a][1,4]diazepin-6-yl)-1-(4-((4-(4-(3-(5-ethyl-2,4-dihydroxyphenyl)-5-hydroxy-4H-1,2,4-triazol-4-yl)benzyl)piperazin-1-yl)methyl)piperidin-1-yl)ethan-1-one hydrochloride] | < 100 | 100 to 1000 | 100 to 1000 | – |
| CCNC(=O)c1nnc(-c2cc(C(C)C)c(O)cc2O)n1-c1ccc(CC2CCN(CC3CCN(C(=O)C[C@@H]4N=C(c5ccc(Cl)cc5)c5c(sc(C)c5C)-n5c(C)nnc54)CC3)CC2)cc1 [Compound 90, (S)-4-(4-((1-((1-(2-(4-(4-chlorophenyl)-2,3,9-trimethyl-6H-thieno[3,2-f][1,2,4]triazolo[4,3-a][1,4]diazepin-6-yl)acetyl)piperidin-4-yl)methyl)piperidin-4-yl)methyl)phenyl)-5-(2,4-dihydroxy-5-isopropylphenyl)-N-ethyl-4H-1,2,4-triazole-3-carboxamide] | < 100 | 100 to 1000 | 100 to 1000 | – |
| Cc1nn(-c2ccc(C(N)=O)c(NCCOCCOCCNC(=O)C[C@@H]3N=C(c4ccc(Cl)cc4)c4c(sc(C)c4C)-n4c(C)nnc43)c2)c2c1C(=O)CC(C)(C)C2 [Compound 21, 2-((2-(2-(2-(2-((6S)-4-(4-chlorophenyl)-2,3,9-trimethyl-6H-thieno[3,2-f][1,2,4]triazolo[4,3-a][1,4]diazepin-6-yl)acetamido)ethoxy)ethoxy)ethyl)amino)-4-(3,6,6-trimethyl-4-oxo-4,5,6,7-tetrahydro-1H-indazol-1-yl)benzamide, trifluoroacetic acid] | 100 to 1000 | > 1000 | > 1000 | – |
| CCc1cc(-c2nnc(O)n2-c2ccc(CN3CCN(CC4CCN(CC[C@@H]5N=C(c6ccc(Cl)cc6)c6c(sc(C)c6C)-n6c(C)nnc65)CC4)CC3)cc2)c(O)cc1O [Compound 2, 4-(4-(4-((4-((1-(2-((6S)-4-(4-chlorophenyl)-2,3,9-trimethyl-6H-thieno[3,2-f][1,2,4]triazolo[4,3-a][1,4]diazepin-6-yl)ethyl)piperidin-4-yl)methyl)piperazin-1-yl)methyl)phenyl)-5-hydroxy-4H-1,2,4-triazol-3-yl)-6-ethylbenzene-1,3-diol, trifluoroacetic acid] | 100 to 1000 | > 1000 | < 100 | – |
| COc1cccc(-c2cc(C(=O)Nc3ccc(-c4ccc(OC5CCN(CC[C@@H]6N=C(c7ccc(Cl)cc7)c7c(sc(C)c7C)-n7c(C)nnc76)CC5)cc4OCCN(C)C)cc3)ccc2OC)c1 [Compound 139, (S)—N-(4′-((1-(2-(4-(4-chlorophenyl)-2,3,9-trimethyl-6H-thieno[3,2-f][1,2,4]triazolo[4,3-a][1,4]diazepin-6-yl)ethyl)piperidin-4-yl)oxy)-2′-(2-(dimethylamino)ethoxy)-[1,1′-biphenyl]-4-yl)-3′,6-dimethoxy-[1,1′-biphenyl]-3-carboxamide] | – | 100 to 1000 | > 1000 | 100 to 1000 |
| Cc1sc2c(c1C)C(c1ccc(Cl)cc1)=N[C@@H](CC(=O)N[C@H](C)c1cccc(CN3CCC(Cc4ccc(-n5c(O)nnc5-c5cc(C(C)C)c(O)cc5O)cc4)CC3)c1)c1nnc(C)n1-2 [Compound 81, 2-((S)-4-(4-chlorophenyl)-2,3,9-trimethyl-6H-thieno[3,2-f][1,2,4]triazolo[4,3-a][1,4]diazepin-6-yl)-N—((R)-1-(3-((4-(4-(3-(2,4-dihydroxy-5-isopropylphenyl)-5-hydroxy-4H-1,2,4-triazol-4-yl)benzyl)piperidin-1-yl)methyl)phenyl)ethyl)acetamide, trifluoroacetic acid] | < 100 | 100 to 1000 | 100 to 1000 | – |
| CCc1cc(-c2nnc(O)n2-c2ccc(CN3CCC(C(=O)N4CCC(CNC(=O)C[C@@H]5N=C(c6ccc(Cl)cc6)c6c(sc(C)c6C)-n6c(C)nnc65)C4)CC3)cc2)c(O)cc1O (stereo partly drawn) [Compound 77, 2-((6S)-4-(4-chlorophenyl)-2,3,9-trimethyl-6H-thieno[3,2-f][1,2,4]triazolo[4,3-a][1,4]diazepin-6-yl)-N-((1-(1-(4-(3-(5-ethyl-2,4-dihydroxyphenyl)-5-hydroxy-4H-1,2,4-triazol-4-yl)benzyl)piperidine-4-carbonyl)pyrrolidin-3-yl)methyl)acetamide, trifluoroacetic acid] | 100 to 1000 | < 100 | 100 to 1000 | – |
| (S)—N-(4′-((1-((S)-(2-(4-(4-chlorophenyl)-2,3,9-trimethyl-6H-thieno[3,2-f][1,2,4]triazolo[4,3-a][1,4]diazepin-6-yl)acetyl)glycyl)piperidin-4-yl)oxy)-2′-hydroxy-[1,1′-biphenyl]-4-yl)-3′,6-dimethoxy-[1,1′-biphenyl]-3-carboxamide [Compound 133] | – | > 1000 | > 1000 | > 1000 |
| Cc1sc2c(c1C)C(c1ccc(Cl)cc1)=N[C@@H](CC(=O)N1CCC(CN3CCN(Cc4ccc(-n5c(O)nnc5-c5ccc(O)cc5O)cc4)CC3)CC1)c1nnc(C)n1-2 [Compound 4, 2-((6S)-4-(4-chlorophenyl)-2,3,9-trimethyl-6H-thieno[3,2-f][1,2,4]triazolo[4,3-a][1,4]diazepin-6-yl)-1-(4-((4-(4-(3-(2,4-dihydroxyphenyl)-5-hydroxy-4H-1,2,4-triazol-4-yl)benzyl)piperazin-1-yl)methyl)piperidin-1-yl)ethanone, trifluoroacetic acid] | 100 to 1000 | < 100 | > 1000 | – |
